The values below come from paper PMC4718634, “Murine GPRC6A Mediates Cellular Responses to L-Amino Acids, but Not Osteocalcin Variants” (PLoS ONE, 2016).

For test [1], the system named is un-induced FlpIn-TREx-HEK293-mGPRC6A cells. Briefly: Label-free cell impedance, un-induced FlpIn-TREx-HEK293-mGPRC6A cells. The test is classed as cell-based. Particulars: Fig 4. The procedure: 2.5 x 10^7 FlpIn-TREx-HEK293-mGPRC6A cells were seeded in a T175 flask and incubated overnight at 37°C in 5% CO2. Cells were then transfected with 35 μg of plasmid DNA (GαqG66D) with Lipofectamine LTX according to manufacturer's instructions, then incubated for 24h at 37°C in 5% CO2. Prior to the experiment, a background reading for each E-plate 96 (Bio-Rad, CA, USA) was measured after addition of 100 μl DMEM + 10% FBS per well. Cells were recovered using Versene and seeded at a 10^5 cells/well density in 200 μl DMEM + 10% FBS (containing 1 μg/ml tetracycline where indicated). Cells were washed 2 x 2 h in HBSS buffer (pH 7.2) containing 20 mM HEPES, 1 mM CaCl2 and 0.1% BSA (w/v) in a total volume of 180 μl. Test compounds (20 μl at 10x final concentration) were added to the plate and cell impedance was monitored for 3 h. Cell index was normalised to the buffer response (minus the baseline response at zero time point).

The target in test [2] is T1, mGPRC6A (mouse GPRC6A) (Mus musculus, UniProt Q8K4Z6).
T1 sequence (Q8K4Z6 21-928): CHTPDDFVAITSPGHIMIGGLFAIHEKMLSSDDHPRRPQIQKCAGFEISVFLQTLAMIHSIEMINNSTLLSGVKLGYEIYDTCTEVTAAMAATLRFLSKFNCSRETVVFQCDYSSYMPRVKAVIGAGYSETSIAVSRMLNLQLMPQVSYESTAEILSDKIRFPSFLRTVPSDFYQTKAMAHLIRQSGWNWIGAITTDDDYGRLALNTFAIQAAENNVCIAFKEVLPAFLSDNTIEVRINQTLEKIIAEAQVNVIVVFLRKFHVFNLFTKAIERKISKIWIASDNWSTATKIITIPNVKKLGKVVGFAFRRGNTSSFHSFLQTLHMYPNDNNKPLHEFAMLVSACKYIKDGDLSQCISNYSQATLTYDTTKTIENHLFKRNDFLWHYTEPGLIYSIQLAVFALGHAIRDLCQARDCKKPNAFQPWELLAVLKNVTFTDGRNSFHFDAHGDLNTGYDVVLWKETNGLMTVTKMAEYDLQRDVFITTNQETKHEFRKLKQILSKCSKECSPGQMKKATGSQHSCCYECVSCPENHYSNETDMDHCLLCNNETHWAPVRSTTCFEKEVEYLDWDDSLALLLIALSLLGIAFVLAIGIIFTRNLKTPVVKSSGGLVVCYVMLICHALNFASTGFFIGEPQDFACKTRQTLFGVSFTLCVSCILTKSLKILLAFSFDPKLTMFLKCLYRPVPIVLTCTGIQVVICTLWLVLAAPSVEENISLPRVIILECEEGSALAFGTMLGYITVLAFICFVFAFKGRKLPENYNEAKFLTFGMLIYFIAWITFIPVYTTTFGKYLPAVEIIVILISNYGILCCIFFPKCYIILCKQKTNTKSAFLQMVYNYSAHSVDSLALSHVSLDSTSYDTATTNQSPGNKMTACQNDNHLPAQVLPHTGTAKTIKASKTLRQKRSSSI
Briefly: Ca^2+i mobilisation, FlpIn-TREx-HEK293-mGPRC6A cells. It is filed as cell-based. The method, boiled down:
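Tetracycline-induced FlpIn-TREx-HEK293 cells expressing mouse GPRC6A, transiently transfected with Gαq or GαqG66D and serum-starved overnight, were loaded with 1 μM Fluo-4-AM 1 h at 37 °C in pH 7.4 buffer with probenecid.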

“Also recorded” adds a separate entry of the source.

As to `NCCC[C@H](N)C(=O)O` [L-ornithine], the “cell impedance (cell index) response” value in test [1] was “only mGPRC6A-expressing cells responded to L-ornithine; also recorded: increases cellular impedance only in tetracycline-induced cells”. For the same molecule, the “potency at murine GPRC6A (calcium and inositol phosphate, words)” value in test [2] (calcium mobilisation and inositol phosphate accumulation, Discussion) was “most potent agonists”. The “rank order of potency, Ca^2+ mobilisation” value in test [2] (co-expressing GαqG66D, Fig 1D) is listed as “L-ornithine > L-arginine = L-lysine”. In test [2] (co-expressing GαqG66D, Fluo-4, normalised to 100 μM ATP, pEC50 ± SEM, printed in picture Fig 1D, read-out: pEC50, Ca^2+ mobilisation (converted)), the EC50 was 3.16 µM.
